From patent publication US20070231838A1, “Method for the assay of rock kinase activity in cells” (priority 2006, published 2007) come the findings set out here.

This test deals with ROCK kinase. Briefly: Immunoblotting of MYPT1 phosphorylation in Panc-1 cells treated with ROCK inhibitors. The following applies: for rank order of potency for reduction of MYPT1 phosphorylation: 1 h incubation, immunoblotting (FIG. 5A). The format is cell-based, human. As for the experimental part:
FIG. 3: Extraction of cytoskeletal substrates of ROCK1/ROCK2 from Pancd cell extracts: (A) Panc-1 cells were incubated in the presence and absence of 10 μM ROCK inhibitor Y27632 for 1 h followed by lysis in the indicated buffers. Equal fractions of cell lysate were analyzed by immunoblotting for pMYPT1 (T696 or T853), total MYPT1, pMLC (S19) and total MLC. (B) 10 μL aliquots of Panc-1 cell lysate prepared in PROTEOEXTRACT® buffer (or buffer alone for control wells) were diluted in buffer A as indicated prior to addition to MYPT1 antibody-coated ELISA assay plate wells. Quantitation of the extent of MYPT1 (T853) phosphorylation was performed in triplicate assay wells as described in the methods section. Results plotted are mean signal intensities, error bars represent Standard Deviations.
FIG. 4: Time course of reduction of MYPT1 phosphorylation bv ROCK inhibitors in Pancl cells: Panc-1 cells were incubated in the presence and absence of 10 μM ROCK inhibitor Y27632 for the indicated time points followed by lysis in SDS-PAGE sample buffer. Equal fractions of cell lysate were then analyzed by immunoblotting for pMYPT1 (T696 or T853) and total MYPT1 protein.
FIG. 5: Effect of ROCK inhibitors on MYPT1 (T853) phosphorylation in Panc-1 cells: (A) Panc-1 cells were incubated in the presence and absence of the indicated concentrations of ROCK inhibitors H1152, Y27632 or HA1077 for 1 h, followed by lysis in SDS-PAGE sample buffer. Equal fractions of cell lysate were then analyzed by immunoblotting for pMYPT1 (T696 or T853) and total MYPT1 protein. (B) Panc1 cells were grown in 96-well culture plates, and incubated for 1 h with the indicated concentrations of compound ROCK inhibitors H1152, Y27632 or HA1077. Lysates were then prepared in PROTEOEXTRACT® buffer, and analyzed in the pMYPT1 (T853) ELISA assay as described in the Methods section.
Human cancer cell lines were purchased from the American Type Culture Collection (ATCC). Panc-1 cells were grown in Dulbecco's modified Eagle's medium with 2 mM L-glutamine adjusted to contain 3.7 g/L sodium bicarbonate and 4.5 g/L glucose, 10% fetal bovine serum. All other cell lines were grown in media as prescribed by the ATCC, containing 10% FCS.
Lysates were prepared from cultured cells, following a brief rinse in PBS, using several different buffers. Buffer A (50 mM Tris-HCl, pH 7.4, 150 mM NaCl, 10% glycerol, 1% Triton X-100, 0.5 mM EDTA, 1 mM […], […], lmg/ml aprotinin) and buffer B (RIPA buffer: Sigma catalog #R0278, containing protease and phosphatase inhibitor cocktails Sigma catalog #P2850, P5726 P8340) were added to the cells in culture dishes, the cells were scraped from the dish and the lysates transferred to eppendorf tubes and incubated at 4° C. for 20 min. Lysates were then clarified by centrifugation at 10,000 g, and the resulting supernatants were stored at −80° C. prior to the addition of SDS-PAGE sample buffer and analysis by immunoblotting. Alternatively, lysates were prepared by the direct addition of SDS-PAGE sample buffer to the cultures, and samples were prepared for analysis by sonication for 5 min followed by heating to 100° C. for 5 min. Alternatively, lysates were prepared by the addition of PROTEOEXTRACT® solution (complete mammalian proteome extraction kit, Calbiochem, #539779) including 16.5 IU of BENZONASE® (Novagen, Inc., Madison, Wis.) followed by shaking for 30 minutes at room temperature. Samples prepared by this method were either diluted directly into SDS-PAGE sample buffer for analysis by immunoblotting, or were diluted 10-fold in buffer A for analysis in antibody capture ELISA assays. Tumor lysates were prepared using the PROTEOEXTRACT® complete mammalian proteome extraction kit (Calbiochem, #539779). Approximately 300 mg samples of tumor sample were homogenized and dispersed in […] resuspension buffer, then 2.4 mL extraction reagent and 150 μl reducing agent were added and the samples were mixed thoroughly. […]
On the technique in general: Immunoblotting shows a protein as a band on a membrane.

Where [1] appears, read: 10 μM for 1 h prior to lysis, immunoblotting (FIG. 3).
Where [2] appears, read: 10 μM, time course up to 24 h (FIG. 4).

Turning to `Cc1cncc2cccc(S(=O)(=O)N3CCCNC[C@@H]3C)c12` [H1152], the “rank order of potency for reduction of MYPT1 phosphorylation” value is reported as “H1152>Y27632>HA1077”.
The same measure, in the same setting: the same measure for `O=S(=O)(c1cccc2cnccc12)N1CCCNCC1` [HA1077]: “H1152>Y27632>HA1077”.
`C[C@@H](N)[C@H]1CC[C@H](C(=O)Nc2ccncc2)CC1` [Y27632]: the “rank order of potency for reduction of MYPT1 phosphorylation” value is “H1152>Y27632>HA1077”. Under setting [1], the “level of MYPT1 phosphorylation” value is on record as “significantly reduced” and the “total MYPT1 protein content of the extracts” value is reported as “without affecting significantly”. For the same molecule, under setting [2], the “incubation time necessary to maximally reduce steady-state phosphorylation of MYPT1 T696” value is listed as “at least 8 hours” and the “time to maximal reduction of steady-state phosphorylation of MYPT1 (T853)” value lay in the range of 30 to 60 min.
